According to PubChem BioAssay (NCI):
Several values for one entry are separate records, joined by “and”; a condition that tells them apart may be missing. Equal entries are not always repeated.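 Tested at 5 concentrations; 48 h exposure; 96-well plates; endpoints linearly interpolated, else capped at highest concentration. Here, GI50 denotes the concentration required for 50% inhibition of growth. The concentration for full growth arrest is given as TGI.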

How the values were obtained:
Assay in all cases: growth of human tumour cells (NCI), 48 h
SN12C renal = tested on: SN12C renal
UACC-257 melanoma = tested on: UACC-257 melanoma
UO-31 renal = tested on: UO-31 renal
NCI-H460 lung = tested on: NCI-H460 lung
DU-145 prostate = tested on: DU-145 prostate
NCI-H226 lung = tested on: NCI-H226 lung
MDA-MB-435 = tested on: MDA-MB-435
SF-268 CNS = tested on: SF-268 CNS
MCF7 breast = tested on: MCF7 breast
OVCAR-3 ovarian = tested on: OVCAR-3 ovarian

| Structure (SMILES) | GI50 (SN12C renal) | TGI (SN12C renal) | GI50 (UACC-257 melanoma) | TGI (UACC-257 melanoma) | GI50 (UO-31 renal) | TGI (UO-31 renal) | GI50 (NCI-H460 lung) | TGI (NCI-H460 lung) | GI50 (DU-145 prostate) | TGI (DU-145 prostate) | GI50 (NCI-H226 lung) | TGI (NCI-H226 lung) | GI50 (MDA-MB-435) | TGI (MDA-MB-435) | GI50 (SF-268 CNS) | TGI (SF-268 CNS) | GI50 (MCF7 breast) | TGI (MCF7 breast) | GI50 (OVCAR-3 ovarian) | TGI (OVCAR-3 ovarian) |
| --- | --- | --- | --- | --- | --- | --- | --- | --- | --- | --- | --- | --- | --- | --- | --- | --- | --- | --- | --- | --- |
| O=C(CSc1nc2ccc([N+](=O)[O-])cc2[nH]1)Nc1cccc(C(F)(F)F)c1 | 2.18 µM | 10.6 µM | 1.33 µM | 6.63 µM | 1.81 µM | 8.9 µM | 2.88 µM | 11.3 µM | 3.54 µM | 15 µM | 1.69 µM | 9.27 µM | 2.5 µM | 12.8 µM | 2.73 µM | 13.9 µM | 1.95 µM | 9.44 µM | 1.66 µM | 11 µM |
| C=C1C(=O)O[C@H]2[C@H]1CC/C(COC(=O)/C=C/c1cccnc1)=C\CC[C@@]1(C)O[C@@H]21 | 2.38 µM | 7.92 µM | 1.73 µM | 3.54 µM | 1.11 µM | 2.51 µM | 5.12 µM | 20 µM | 1.39 µM | 3.01 µM | 2.68 µM | 9.98 µM | 1.83 µM | 5.14 µM | 4.63 µM | 18.4 µM | 0.748 µM | 2.72 µM | 0.494 µM | 1.76 µM |
| COc1ccc(/C=C/C(=O)/C=C(/C=C/c2ccc(OC)c(OC)c2)OB(F)F)cc1OC |  |  | 1.76 µM | 5.55 µM | 0.652 µM | 3.72 µM | 1.68 µM | 4.58 µM | 1.12 µM | 2.84 µM | 2 µM | 6.88 µM | 0.522 µM | 3.89 µM | 2.42 µM | > 100 µM | 0.4 µM | > 100 µM | 0.324 µM | 1.04 µM |
| Nc1nc(SCC(=O)O)[nH]c(=O)c1N |  | 30.5 µM |  | > 100 µM |  | > 100 µM |  | > 100 µM |  | > 100 µM |  | > 100 µM |  | > 100 µM |  | > 100 µM |  | > 100 µM |  | > 100 µM |
| O=C(Nc1cccc(NS(=O)(=O)c2ccc(F)cc2)c1)c1ccc(-c2ccccc2)cc1 | 2.96 µM | 11.8 µM | 2.76 µM | 9.93 µM | 2.56 µM | 16.9 µM | 3.42 µM | 14.7 µM | 3.96 µM | > 100 µM | 3.22 µM | 24.3 µM | 3.26 µM | 13.7 µM | 3.22 µM | 66.6 µM | 2.71 µM | 11.2 µM | 2.99 µM | 15.3 µM |
| O=C1NC(=O)[C@@H](c2cn3c4c(cccc24)CCC3)[C@@H]1c1c[nH]c2ccccc12 | 0.556 µM and 0.888 µM | > 10 µM and 15.9 µM | 0.712 µM and 2.51 µM | > 10 µM and 29.8 µM | 0.552 µM and 0.519 µM | > 10 µM and 27.1 µM | 0.365 µM and 0.372 µM | > 10 µM and 8.55 µM | 0.417 µM and 0.442 µM | > 10 µM and 6.81 µM | > 2.61 µM and 1.48 µM | > 10 µM and 17.9 µM | 0.146 µM and 0.125 µM | 0.431 µM and 0.367 µM | 1.32 µM and 0.911 µM | > 10 µM and 17.5 µM | 0.246 µM and 0.331 µM | > 10 µM and 12.8 µM | 0.273 µM and 0.28 µM | > 2.22 µM and 0.789 µM |
| CCOC(=O)c1sc2ncn(Cc3cccc(Cl)c3)c(=O)c2c1C | 15.3 µM | 28.6 µM | 15.6 µM | 29.3 µM | 13.5 µM | 26.4 µM | 18.7 µM | 39.7 µM | 17.7 µM | 31.5 µM | 12.9 µM | 25.8 µM | 13.9 µM | 26.9 µM | 15.1 µM | 28.4 µM | 15.8 µM | 29.2 µM | 12.6 µM | 25.1 µM |
